Laboratory results: patent publication US20170340636A1, “COMPOSITIONS AND METHODS FOR INHIBITION OF AUTOPHAGY” (Board of Regents, The University of Texas System, priority 2016, published 2017)

What was measured:
[1] = molecular target: T1, TAOK2 (Rattus norvegicus, UniProt Q9JLS3); assay: Kinase-Glo high-throughput screen / re-screen of TAOK2 activity (MBP substrate); format: biochemical; settings: estimate from HTS re-screen at 1, 3.3 and 10 μM
T1 construct: made in house
T1 sequence (Q9JLS3 1-320 limits assumed): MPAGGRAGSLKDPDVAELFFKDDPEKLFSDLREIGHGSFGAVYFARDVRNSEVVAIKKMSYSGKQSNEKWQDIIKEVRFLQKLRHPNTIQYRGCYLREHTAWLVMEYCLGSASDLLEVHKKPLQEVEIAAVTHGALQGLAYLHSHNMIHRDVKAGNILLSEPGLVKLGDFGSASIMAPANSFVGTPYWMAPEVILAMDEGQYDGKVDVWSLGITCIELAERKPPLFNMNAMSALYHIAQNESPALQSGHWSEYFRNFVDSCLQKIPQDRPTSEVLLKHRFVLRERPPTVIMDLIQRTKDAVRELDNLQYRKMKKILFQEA
Description: TAOK2 activity was screened in a high-throughput fashion using Kinase-Glo (Promega). A 20 μL, solution of 50 mM HEPES pH 7.4, 50 mM MgCl2, 1.27 mg/ml MBP and 0.005 mg/ml TAOK2 was added to each well of a 384 well Corning plate using a Biotek MultiFlo dispenser. 0.2 μl of compound (columns 3 to 22, 50 μM), DMSO negative control (columns 2, 23, and 24), or staurosporine positive control (column 1, 43.4 μM) were then added to each well with a Biomek Liquid handler. 10 μl of 50 μg/ml ATP solution was added to each well with a Labsystems Multidrop384. The plates were incubated at RT for 100 minutes. 20 μl Kinase Glo (Promega) was added to each well, and allowed to incubate for 10minutes under agitation. Luminescence was read on an Envision Multilabel plate reader.
After cherry picking primary hits, the selected compounds were assayed in a limited dose-response format (10, 3.3, and 1 μM) in triplicate using the primary enzymatic assay for TAOK2. The data for each assay well was normalized to the neutral controls. The normalized activity values (replicates) for each compound in each assay were then condensed to a single value (condensed activity) using the “Robust Condensing” method in Genedata Screener®. The condensed activity is the most representative single value of the triplicates. In general, the triplicates were pre-condensed into a pair of values as follows:
In order to study the relationship between TAOK2 and both cancer and autophagy, a high-throughput screen was performed using a 200,000 compound library to discover novel small-molecule kinase inhibitors (FIG. 1A-D). Phosphorylation reactions were performed in a 384 well format against the generic kinase substrate Myelin Basic Protein (MBP) with the addition of compound. Kinase-Glo (Promega) was then added to each well to detect remaining ATP concentration. Thus, inhibitory compounds would decrease TAOK2 activity, which would increase both remaining ATP concentration and luminescence in those wells.
After the initial screen, 1645 compounds were identified with inhibition greater than three σ above the mean DMSO control (FIG. 1A). The Z′ factor of the initial screen across all plates was 0.77, indicating high significance (FIG. 1B). These compounds were then re-screened in triplicate under the same conditions, with the compounds being assayed at three concentrations (1 μM, 3.3 μM, and 10 μM, FIG. 1C, D). 432 compounds were identified after the re-screen with average inhibitions greater than 10 sigma at the 10 μM concentration. The Z′ factor of the confirmation screen was 0.52, again indicating high significance.

[2] = molecular target: T1, TAOK2; assay: Differential scanning fluorimetry (DSF) binding assay against TAOK2; settings: DSF melt temperature shift of TAOK2, 5 μM TAOK2, compound 1 μM
Description: (§1) Differential scanning fluorimetry binding assays of selected compounds against TAOK2 were conducted to measure strength of compound binding. A solution of 5 μM TAOK2, 50 mM MgCl2, 50 mM HEPES pH 7.5, and 2.5x SyproOrange(Life Technologies) was made. Compound was added to a final concentration of 1 μM. 25 μl of the reaction solution was added to the wells of a Biorad Multiplate 96 wellclear PCR plate. The plate was covered with a Biorad Microseal ‘B’ seal. Plates were read in a Biorad CFX96 Real-Time PCR system. The temperature was increased from 4° C. to 80° C., with fluorescence measurements being taken every 0.5° C. in the 6-FAM Fluorescein channel. The fluorescence response to heat curve was fit to a binding isotherm in order to determine the inflection point, which was taken as the melt temperature (Tm).
The prevalence of multiple heterocycles in the compounds is reflective of the composition of the screen (described in Methods in Supplemental Material). These 13 compounds were purchased from Chembridge Inc. and ChemDiv Inc. for measurement of direct binding using Differential Scanning Fluorimetry (DSF). DSF measures protein melt temperature (Tm) with a lipophilic dye (SyproOrange). As the temperature of the solution is increased, measurements of dye fluorescence are taken. When the protein begins to denature, hydrophobic regions in the protein are exposed, and the dye is able to bind. This binding insulates the dye from the surrounding water, reducing quenching effects and allowing fluorescence. Binding of small molecules to protein has a stabilizing effect, and this is seen by an increase in melt temperature (Table 1). The ΔTm values ranged from 3.0 to −0.6° C. The three compounds with the highest positive shifts were SW034538, SW163112, and SW083688, with 3° C., 2.2° C., and 2° C. shifts, respectively.

[3] = molecular target: T2, ASK1 (Homo sapiens, UniProt Q99683); assay: DSF against ASK1 (selectivity panel of MAPK cascade members); format: binding; settings: difference between the TAOK2 ΔTm and that of ASK1, DSF
T2 sequence (Q99683 1-1374): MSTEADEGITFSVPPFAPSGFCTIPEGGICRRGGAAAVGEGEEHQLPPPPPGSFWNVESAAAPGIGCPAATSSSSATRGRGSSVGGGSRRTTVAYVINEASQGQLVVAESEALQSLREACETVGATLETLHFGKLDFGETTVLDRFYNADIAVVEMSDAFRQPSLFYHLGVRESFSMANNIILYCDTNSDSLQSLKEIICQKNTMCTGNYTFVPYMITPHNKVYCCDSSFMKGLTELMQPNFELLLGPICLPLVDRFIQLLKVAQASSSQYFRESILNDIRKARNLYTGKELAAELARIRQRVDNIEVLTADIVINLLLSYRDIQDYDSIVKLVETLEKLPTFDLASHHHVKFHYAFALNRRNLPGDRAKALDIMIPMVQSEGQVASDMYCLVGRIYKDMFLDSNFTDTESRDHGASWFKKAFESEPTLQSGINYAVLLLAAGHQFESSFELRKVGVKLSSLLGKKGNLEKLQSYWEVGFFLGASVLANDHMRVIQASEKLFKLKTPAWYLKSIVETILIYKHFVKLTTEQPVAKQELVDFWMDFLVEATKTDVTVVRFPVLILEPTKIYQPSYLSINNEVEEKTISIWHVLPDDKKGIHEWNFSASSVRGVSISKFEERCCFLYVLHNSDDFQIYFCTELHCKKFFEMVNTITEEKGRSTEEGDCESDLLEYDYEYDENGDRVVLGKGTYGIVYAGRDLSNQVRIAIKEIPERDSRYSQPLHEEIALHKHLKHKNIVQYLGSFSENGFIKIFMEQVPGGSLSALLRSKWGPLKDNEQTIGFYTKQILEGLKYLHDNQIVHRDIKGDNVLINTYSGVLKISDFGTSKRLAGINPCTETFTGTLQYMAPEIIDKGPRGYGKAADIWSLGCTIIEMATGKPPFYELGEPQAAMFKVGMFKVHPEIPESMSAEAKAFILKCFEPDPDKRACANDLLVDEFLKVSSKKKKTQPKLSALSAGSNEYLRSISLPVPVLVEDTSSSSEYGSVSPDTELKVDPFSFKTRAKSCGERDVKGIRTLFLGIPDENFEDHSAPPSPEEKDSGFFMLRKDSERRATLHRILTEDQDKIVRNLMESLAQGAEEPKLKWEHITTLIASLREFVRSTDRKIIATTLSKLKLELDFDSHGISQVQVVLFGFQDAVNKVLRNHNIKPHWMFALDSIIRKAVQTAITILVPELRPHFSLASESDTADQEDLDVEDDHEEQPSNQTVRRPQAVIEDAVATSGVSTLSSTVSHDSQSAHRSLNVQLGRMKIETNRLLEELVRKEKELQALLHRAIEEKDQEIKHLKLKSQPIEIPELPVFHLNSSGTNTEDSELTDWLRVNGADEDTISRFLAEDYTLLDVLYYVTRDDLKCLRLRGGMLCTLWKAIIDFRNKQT
Description: as §1
(§2) The difference between the TAOK2 ΔTm and that of p38 and ASK1 was determined. […] The majority of the other compounds were also preferentially inhibitory toward TAOK2. Of the 13 compounds, SW034538, SW172006 and SW083688 were cross-verified for selectivity by performing a specificity screen against 45 kinases commercially at Eurofins Cerep, Inc. (FIG. 3).

[4] = molecular target: p38 (Homo sapiens, UniProt Q16539); assay: DSF against p38 (selectivity panel of MAPK cascade members); format: binding; settings: for ΔΔTm (p38): difference between the TAOK2 ΔTm and that of p38, DSF
Description: as §1, §2

p38, sequence (Q16539 whole entry): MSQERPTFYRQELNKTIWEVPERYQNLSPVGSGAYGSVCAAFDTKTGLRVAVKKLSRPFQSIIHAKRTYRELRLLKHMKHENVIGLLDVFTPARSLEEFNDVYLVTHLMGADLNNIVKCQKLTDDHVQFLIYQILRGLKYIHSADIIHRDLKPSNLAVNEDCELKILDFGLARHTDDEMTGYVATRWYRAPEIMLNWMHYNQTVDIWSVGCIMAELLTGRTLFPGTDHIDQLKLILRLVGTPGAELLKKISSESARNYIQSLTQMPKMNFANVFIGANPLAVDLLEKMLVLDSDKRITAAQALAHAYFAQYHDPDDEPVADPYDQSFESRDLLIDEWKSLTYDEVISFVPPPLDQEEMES

Row | IC50 [1] [nM] | ΔTm [2] [°C] | ΔΔTm (ASK1) [3] [°C] | ΔΔTm (p38) [4] [°C] | ΔTm with respect to p38 ([4]; DSF cross-reactivity with p38) [°C] | SMILES
1 | 1000 | 0.5 |  |  |  | Cc1cccc(NC(=S)N/N=C/c2c[nH]c3ccccc23)c1 [SW109820]
2 | 3000 | 0.1 |  |  |  | CCc1ccccc1Nc1ncc(-c2sc(NC(C)=O)nc2C)s1 [SW034513]
3 | 6000 | 1.6 | 1.2 | 1.3 |  | Cc1ccc(NCCCC(=O)N/N=C/c2cc(Br)cc(Br)c2O)cc1 [SW106178]
4 | 600 | 1.2 | 1.1 | 0.3 | 0.9 | O=C(NCC1COc2ccccc2O1)c1ccc2c(=O)n(Cc3ccco3)c(=S)[nH]c2c1 (stereo not shown) [SW083604]
